Data as given in patent US11064704B2, “Natural product formulations with improved residual insect repellent/deterrent activity” (University of Mississippi, priority 2016, dated 2021).

What was measured:
[1] = tested on: Aedes aegypti; test: in vitro Klun and Debboun (K&D) biting deterrent bioassay; format: in vivo
Method: Experiments were conducted by using a six-celled in vitro Klun and Debboun (K&D) module bioassay system developed by Klun et al. (2005) for quantitative evaluation of biting deterrence. Briefly, the assay system consists of a six well reservoir with each of the 3×4 cm wells containing 6 mL of blood or feeding solution. As described by Ali et al. (2012), a feeding solution consisting of CPDA-1 and ATP was used instead of blood. Green fluorescent tracer dye (www.blacklightworld.com) was used to determine the feeding by the females. Carrot seed essential oil was initially tested to determine the biting deterrent activity. […] Essential oil and carotol were further tested against Ae. aegypti and An. quadrimaculatus in this bioassay. Treatments of carrot seed essential oil at 10 μg/cm^2 and carotol were tested at 10 and 5 μg/cm^2, whereas DEET (97% N,N-diethyl-meta-toluamide) (Sigma Aldrich, St. Louis, Mo.) at 25 nmol/cm^2 was used as positive control. All the treatments were freshly prepared in molecular biology grade 100% ethanol (Fisher Scientific Chemical Co. Fairlawn, N.J.) at the time of bioassay.
The temperature of the solution in the reservoirs was maintained at 37° C. by continuously passing warm water through the reservoir using a circulatory bath. The reservoirs were covered with a layer of collagen membrane (Devro, Sandy Run, S.C.). The test compounds were randomly applied to six 4×5 cm areas of organdy cloth and positioned over the membrane-covered CPDA-1+ATP solution with a Teflon® separator placed between the treated cloth and the six-celled module to prevent the contamination of the module. A six-celled K&D module containing five female mosquitoes per cell was positioned over cloth treatments covering the six CPDA-1+ATP solution membrane wells, and trap doors were opened to expose the treatments to these females. The number of mosquitoes biting through organdy treatments in each cell was recorded after a 3 minute exposure, and mosquitoes were prodded back into the cells to check the actual feeding. Mosquitoes were squashed and the presence of green fluorescent tracer dye (or not) in the gut was used as an indicator of feeding. A replicate consisted of six treatments: four test compounds, DEET (a standard biting deterrent) and ethanol-treated organdy as solvent control applied randomly. Sets of 5 replications each with 5 females per treatment were conducted on 2-3 different days using newly-treated organdy and a new batch of females in each replication. Treatments were replicated 10-15 times. Proportion not biting (PNB) was calculated using the procedure described by Ali et al. (2012).

[2] = tested on: Aedes aegypti females; conditions: literature values; cited from earlier work
[3] = tested on: Aedes albopictus females; test: in vivo cloth patch repellent bioassay
Method: (§1) Cloth patch bioassays were conducted by using in vivo bioassay system described by Katritzky et al. (2008, 2010), with minor modifications. Approximately 500 (±5%) mosquitoes, consisting primarily of females, were transferred into a test cage (45×45×45 cm) using an aspirator. A series of dosages of test compounds were tested to determine MED for repellency of the mosquitoes. MED refers to a concentration of the compound at which biting is less than or equal to 1% (i.e. less than or equal to 5 out of 500 females in the cage) during a 1 minute exposure time. A series of concentrations ranging between 6.25 to 100 μg/cm^2 were tested in the A&K bioassay.
(§2) A single test consisted of covering the hand of a volunteer with a soft-embossed long cuff poly glove (Atlantis Products, Mankato, Minn.), then by a powder-free latex glove (Diamond Grip, Microflex Corporation, Reno, Nev.). The arm was then covered with a knee high stocking (Leggs® Everyday Knee Highs, Winston-Salem N.C. 27102) to avoid the contact of treated muslin cloth with the skin. A plastic sleeve constructed of polyvinyl was then placed around the arm. Velcro strips were used to fix the plastic sleeve around the arm. About half-way between the wrist and elbow, a 4×7.5 cm slit in the plastic sleeve was used to assess mosquito landing and biting behavior. This opening permitted the attractive odors from the skin surface to emanate out and attract mosquitoes through this opening. During testing, this 30 cm^2 open area was covered with a piece of treated muslin cloth. Because of constraint of man power, only one volunteer who was provided written informed consent participated in this study. A protocol approved by the University of Mississippi Human Use Institutional Review Board (IRB protocol #15-070) was followed.
(§3) Stock solutions with concentration of 80 μg/ul were prepared in ethanol. Concentrations ranging between 6.25 to 100 μg/cm^2 were selected for testing based on previous experience of the inventors with the A&K bioassay. A piece of muslin cloth measuring 8×13 cm in size was used. An area of 4×7.5 cm was marked in the center of muslin cloth. Approximately 2.5×7 cm pieces of cardboard were attached by staples on the sides of the muslin cloth. Treatments were applied to the marked area of the cloth in 215 μL volume using a pipetter. After drying, the treated muslin cloth was secured on the opening of the plastic sleeve by using an adhesive tape.
(§4) The test started when the arm with sleeve and treated muslin cloth was inserted into the mosquito cage. […] Residual activity was determined by exposing the females to the treated muslin cloth at an interval of 30 minutes. The treated muslin patch was kept on the arm after the initial treatment and tested every half an hour thereafter.
(§5) Testing started at the highest dose (100 μg/cm^2) and the dose was lowered to reach the MED. Because the mosquitoes show reduced behavioral activity upon repeated exposure to repellent odors from the arm, after 5 successive exposures of the treatments, the caged mosquitoes were allowed a 15 min recovery period.

[4] = tested on: Anopheles quadrimaculatus females; test: in vivo cloth patch repellent bioassay
Method: as §1, §2, §3, §4, §5

[5] = tested on: Aedes aegypti females; test: in vivo cloth patch repellent bioassay; conditions: for residual repellent activity: time post treatment at which activity lost: 12.5 μg/cm^2; for minimum effective dose (MED): cloth patch, 1 minute exposure
Method: as §1, §2, §3, §4, §5

| Structure (SMILES) | proportion not biting (PNB) ([1]; 25 nmol/cm^2) | MED values reported by Ali et al. (2012) and Katritzky et al. (2010) [2] [μg/cm^2] | minimum effective dose (MED) [3] [μg/cm^2] | minimum effective dose (MED) [4] [μg/cm^2] | residual repellent activity: time post treatment at which activity lost [5] | minimum effective dose (MED) [5] [μg/cm^2] | proportion not biting (PNB) ([1]; 5 μg/cm^2) | proportion not biting (PNB) ([1]; 10 μg/cm^2) | biting deterrent activity ([1]; compared with DEET) | residual repellent activity like DEET: time post treatment up to ([5]; 25 μg/cm^2) [min] | residual repellent activity like DEET: time post treatment up to ([5]; 50 μg/cm^2) [min] |
| --- | --- | --- | --- | --- | --- | --- | --- | --- | --- | --- | --- |
| CCN(CC)C(=O)c1cccc(C)c1 [DEET, N,N-diethyl-meta-toluamide, reference compound] | 0.85 | 9 | 12.5 | 6.25 | 30 min | 12.5 |  |  |  |  |  |
| CC1=CC[C@]2(C)CC[C@@H](C(C)C)[C@]2(O)CC1 [carotol] |  |  | 12.5 | 6.25 | failed | 25 | 0.66 | 0.9 | comparable to DEET | 120 | 120 |
